Data as given in patent US20090118332A1, “Therapeutic Agents - 551” (AstraZeneca AB, priority 2006, published 2009).

Biological target: T1, human Fatty Acid Synthase (Homo sapiens, UniProt P49327)
T1 construct: made in house
Assay: Human FAS enzyme assay (decrease in NADPH fluorescence)
Assay type: biochemical
Conditions: for inhibition at 100 µM: % inhibition at a concentration of 100 μmolar
In short: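 In-house human FAS was preincubated with compound and NADPH for 15 min at room temperature in 0.1 M Tris pH 7.5 with EDTA, glutathione and BSA. Malonyl CoA and acetyl CoA (500 μM and 150 μM in the added mix) were then added for 60 min. IC50 came from time-zero-subtracted NADPH fluorescence (340/460 nm).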

T1 sequence (P49327 whole entry): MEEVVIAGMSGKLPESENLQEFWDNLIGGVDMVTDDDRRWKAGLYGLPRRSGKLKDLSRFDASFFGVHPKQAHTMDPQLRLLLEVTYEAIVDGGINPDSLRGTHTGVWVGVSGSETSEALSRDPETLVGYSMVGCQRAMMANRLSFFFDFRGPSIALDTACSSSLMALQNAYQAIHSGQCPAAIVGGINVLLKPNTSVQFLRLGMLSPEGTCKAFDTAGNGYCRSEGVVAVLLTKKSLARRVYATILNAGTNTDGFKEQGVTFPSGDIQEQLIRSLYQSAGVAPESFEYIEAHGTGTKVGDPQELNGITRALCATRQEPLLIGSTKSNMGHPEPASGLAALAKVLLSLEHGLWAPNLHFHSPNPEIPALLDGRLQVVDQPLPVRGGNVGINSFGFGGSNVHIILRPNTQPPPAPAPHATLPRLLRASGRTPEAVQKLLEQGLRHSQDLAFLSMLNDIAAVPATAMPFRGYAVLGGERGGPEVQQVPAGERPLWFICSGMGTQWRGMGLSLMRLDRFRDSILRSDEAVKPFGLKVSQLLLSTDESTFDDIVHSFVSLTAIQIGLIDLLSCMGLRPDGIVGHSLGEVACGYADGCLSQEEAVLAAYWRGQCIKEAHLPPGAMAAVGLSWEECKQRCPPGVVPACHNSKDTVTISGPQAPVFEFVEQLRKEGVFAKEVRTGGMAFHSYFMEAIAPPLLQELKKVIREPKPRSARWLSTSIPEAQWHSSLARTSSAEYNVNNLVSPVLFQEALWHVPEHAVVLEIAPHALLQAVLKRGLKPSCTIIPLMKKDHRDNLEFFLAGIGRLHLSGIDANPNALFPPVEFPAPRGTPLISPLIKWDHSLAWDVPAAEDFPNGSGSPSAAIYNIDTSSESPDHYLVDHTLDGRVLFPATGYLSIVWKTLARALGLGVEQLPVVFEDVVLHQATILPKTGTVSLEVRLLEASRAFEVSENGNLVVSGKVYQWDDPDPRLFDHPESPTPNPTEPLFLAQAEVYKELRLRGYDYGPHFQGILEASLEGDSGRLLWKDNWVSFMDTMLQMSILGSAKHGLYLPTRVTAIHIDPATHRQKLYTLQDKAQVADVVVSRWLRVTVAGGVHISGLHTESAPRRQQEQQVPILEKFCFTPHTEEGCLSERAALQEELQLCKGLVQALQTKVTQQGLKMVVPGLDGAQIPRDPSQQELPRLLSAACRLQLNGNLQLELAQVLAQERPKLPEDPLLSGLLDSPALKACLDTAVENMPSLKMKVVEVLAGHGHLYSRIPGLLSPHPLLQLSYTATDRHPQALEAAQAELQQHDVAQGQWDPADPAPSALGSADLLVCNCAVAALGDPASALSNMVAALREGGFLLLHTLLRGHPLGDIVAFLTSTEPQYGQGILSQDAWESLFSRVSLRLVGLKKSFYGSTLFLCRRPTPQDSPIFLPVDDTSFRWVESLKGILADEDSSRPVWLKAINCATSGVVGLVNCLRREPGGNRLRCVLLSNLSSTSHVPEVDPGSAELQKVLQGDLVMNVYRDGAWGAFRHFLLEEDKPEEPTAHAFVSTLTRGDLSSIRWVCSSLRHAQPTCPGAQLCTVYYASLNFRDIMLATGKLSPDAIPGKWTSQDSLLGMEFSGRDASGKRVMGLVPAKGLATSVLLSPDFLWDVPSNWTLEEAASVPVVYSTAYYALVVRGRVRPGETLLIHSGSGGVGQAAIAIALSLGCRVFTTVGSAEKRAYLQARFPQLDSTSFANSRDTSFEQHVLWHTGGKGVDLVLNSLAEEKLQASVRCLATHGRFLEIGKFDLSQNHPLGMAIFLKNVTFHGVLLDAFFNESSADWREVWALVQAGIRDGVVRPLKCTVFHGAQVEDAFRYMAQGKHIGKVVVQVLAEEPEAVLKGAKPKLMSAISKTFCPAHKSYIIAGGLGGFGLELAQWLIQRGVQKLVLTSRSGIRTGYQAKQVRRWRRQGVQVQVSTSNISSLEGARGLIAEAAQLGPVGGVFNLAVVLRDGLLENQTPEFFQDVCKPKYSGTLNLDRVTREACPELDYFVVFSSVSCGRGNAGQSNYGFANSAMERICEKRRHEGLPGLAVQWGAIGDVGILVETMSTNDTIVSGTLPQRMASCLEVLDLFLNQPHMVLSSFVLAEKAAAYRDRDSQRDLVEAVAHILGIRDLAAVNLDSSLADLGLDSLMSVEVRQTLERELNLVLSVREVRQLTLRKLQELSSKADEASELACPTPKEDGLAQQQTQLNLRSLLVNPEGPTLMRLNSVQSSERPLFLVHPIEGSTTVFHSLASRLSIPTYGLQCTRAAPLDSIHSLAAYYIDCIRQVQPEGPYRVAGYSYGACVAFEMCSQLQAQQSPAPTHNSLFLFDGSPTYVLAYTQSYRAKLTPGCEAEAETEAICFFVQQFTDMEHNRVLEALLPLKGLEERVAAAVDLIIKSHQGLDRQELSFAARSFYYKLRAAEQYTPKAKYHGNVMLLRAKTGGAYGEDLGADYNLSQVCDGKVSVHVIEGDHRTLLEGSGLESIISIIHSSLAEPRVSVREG

Row | inhibition at 100 µM | SMILES | IC50, inhibition of human Fatty Acid Synthase (FAS enzyme assay, IC50 from fitted sigmoid curves)
1 | 94.4% | Cc1ccc(C(=O)N2CCC(c3ccc(C#N)cc3)CC2)cc1NC(=O)NCCNc1ncnc2[nH]cnc12 [Example 95, 1-[5-[4-(4-cyanophenyl)piperidine-1-carbonyl]-2-methyl-phenyl]-3-[2-(9H-purin-6-ylamino)ethyl]urea] | 
2 | 82.8% | Cc1ccc(C(=O)N2CCC(c3ccc(C(F)(F)F)cc3)CC2)cc1NC(=O)NCCN [Example 342, 3-(2-aminoethyl)-1-[2-methyl-5-[4-[4-(trifluoromethyl)phenyl]piperidine-1-carbonyl]phenyl]urea] | 
3 | 96.5% | Cc1ccc(C(=O)N2CCC(c3ccc(C#N)cc3)CC2)cc1NC(=O)N1CCN(C(=O)N(C)C)CC1 [Example 332, N-[5-[4-(4-cyanophenyl)piperidine-1-carbonyl]-2-methyl-phenyl]-N′,N′-dimethyl-piperazine-1,4-dicarboxamide] | 
4 | 93% | COCCCNC(=O)Nc1cc(C(=O)N2CCC(c3ccc(C#N)cc3)CC2)ccc1C [Example 154, 1-[5-[4-(4-cyanophenyl)piperidine-1-carbonyl]-2-methyl-phenyl]-3-(3-methoxypropyl)urea] | 
5 | 87.7% | Cc1ccc(C(=O)N2CCC(c3ccc(C#N)cc3)CC2)cc1NC(=O)NC(C)Cc1c[nH]c2ccccc12 (racemic) [Example 70, (RS)-1-[5-[4-(4-cyanophenyl)piperidine-1-carbonyl]-2-methyl-phenyl]-3-[1-(1H-indol-3-yl)propan-2-yl]urea] | 
6 | 86.5% | Cc1ccc(C(=O)N2CCC(c3ccc(C#N)cc3)CC2)cc1NC(=O)NC1Cc2cccnc2NC1=O (racemic) [Example 239, (RS)-1-[5-[4-(4-cyanophenyl)piperidine-1-carbonyl]-2-methyl-phenyl]-3-(2-oxo-3,4-dihydro-1H-1,8-naphthyridin-3-yl)urea] | 
7 | 83.8% | Cc1ccc(C(=O)N2CCC(c3ccc(C#N)cc3)CC2)cc1NC(=O)NCCCNC(=O)OC(C)(C)C [Example 206, tert-butyl N-[3-[[5-[4-(4-cyanophenyl)piperidine-1-carbonyl]-2-methyl-phenyl]carbamoylamino]propyl]carbamate] | 
8 |  | CCOC(=O)[C@H](CO)NC(=O)Nc1cc(C(=O)N2CCC(c3ccc(C#N)cc3)CC2)ccc1C [Ethyl (2S)-2-[[5-[4-(4-cyanophenyl)piperidine-1-carbonyl]-2-methylphenyl]carbamoylamino]-3-hydroxypropanoate] | do not have IC50s in the range of about 0.001 μM to about 30 μM
9 | 96.3% | Cc1ccc(C(=O)N2CCC(c3ccc(C#N)cc3)CC2)cc1NC(=O)N[C@@H]1CCOC1 [Example 199, 1-[5-[4-(4-cyanophenyl)piperidine-1-carbonyl]-2-methyl-phenyl]-3-[(3R)-oxolan-3-yl]urea] | 
10 | 90.9% | Cc1ccc(C(=O)N2CCC(c3ccc(C#N)cc3)CC2)cc1NC(=O)NCc1cn(C)cn1 [Example 267, 1-[5-[4-(4-cyanophenyl)piperidine-1-carbonyl]-2-methyl-phenyl]-3-[(1-methylimidazol-4-yl)methyl]urea] | 
11 | 104% | Cc1ccc(C(=O)N2CCC(c3ccc(C#N)cc3)CC2)cc1NC(=O)NCc1ncccc1C [Example 250, 3-[5-[4-(4-cyanophenyl)piperidine-1-carbonyl]-2-methyl-phenyl]-1-[(3-methylpyridin-2-yl)methyl]urea] | 
12 | 89.7% | Cc1ccc(C(=O)N2CCC(c3ccc(C#N)cc3)CC2)cc1NC(=O)NCCCN [Example 207, 3-(3-aminopropyl)-1-[5-[4-(4-cyanophenyl)piperidine-1-carbonyl]-2-methyl-phenyl]urea] | 
13 | 90.7% | CCS(=O)(=O)N1CC[C@H](NC(=O)Nc2cc(C(=O)N3CCC(c4ccc(C#N)cc4)CC3)ccc2C)C1 [Example 222, 3-[5-[4-(4-cyanophenyl)piperidine-1-carbonyl]-2-methyl-phenyl]-1-[(3S)-1-ethylsulfonylpyrrolidin-3-yl]urea] | 
